Data: PMC9728921, “Characterization of a KDM5 small molecule inhibitor with antiviral activity against hepatitis B virus” (PLOS ONE, 2022)
Blank lines part the entries; values can stand above or below the molecule they belong to.

How the values were obtained:
KDM5B = target: T1, KDM5B (Homo sapiens, UniProt Q9UGL1); experiment: KDM5B enzymatic assay (CisBio HTRF); format: biochemical
T1 construct: purchased Reaction Biology Corp (assay run there as a contract service)
Description: (§1) KDM5A and 5B were tested using CisBio HTRF assay platform by Reaction Biology Corp (Malvern, PA). All concentrations are final unless noted otherwise. Inhibitors were pre-incubated with 2.5 nM KDM5A or 1.2 nM KDM5B in a 5 μL reaction mixture containing 50 mM HEPES (pH 7.5), 50 mM NaCl, 0.01% Tween 20, 0.01% BSA for 15 min temperature. The reaction was initiated by addition of 5 μL of 50 nM Biotin-H3K4me3 and incubated with gentle shaking for 45 min at RT. The reaction was quenched with 10 mM EDTA and 200 mM potassium fluoride. Upon addition of Eu-Antibody and Streptavidine-XL665, the mixture was incubated for 2 hours in the dark. The fluorescence resonance energy transfer was measured using an excitation wavelength of 320 nm and emission wavelength of 665 nm on an Envision plate reader (Perkin Elmer).
(§2) Data was analyzed using GraphPad Prism 6.0 (La Jolla, CA). […] IC50 values were calculated as an average of at least two independent experiments.

KDM6B = KDM6B (Homo sapiens, UniProt O15054); experiment: KDM6B enzymatic assay (AlphaLISA); format: biochemical
Description: (§3) The following assay protocol was used for all histone demethylases tested except KDM1A, KDM5A, B, and D, which are described below. Compounds were serially diluted into a 384-well Alpha plate as a DMSO solution and mixed with 5 μL reaction buffer (buffer A) containing 50 mM HEPES (pH 7.0), 0.1% BSA, and 0.003% Tween-20. The enzyme of interest was pre-incubated with 15 μM of Fe^2+ for 10 min (except 30 min for KDM2B) in reaction buffer A. 5 μL of the enzyme mixture was added to each of the compound-containing wells and incubated for 10 min. The reaction was started by addition of a 5 μL mixture containing 300 nM peptide substrate, 75 μM L-ascorbic acid, and 30 μM α-ketoglutarate in buffer A. This final 15 μL of reaction mixture was incubated for 20 min for KDM5B and 1 hour for the other KDM enzymes. The reaction was quenched with 10 μL of diluted AlphaLISA Acceptor beads (1:400) in Epigenetics Buffer and incubated for 60 min. The Donor beads were diluted 1:400 into Epigenetics Buffer in the dark and 10 μL of this was added to each well and incubated for another 60 min in the dark. The assay plates were read on an Enspire plate reader (PerkinElmer) using a standard AlphaLISA program.
as §2

KDM7B = KDM7B (Homo sapiens, UniProt Q9UPP1); experiment: KDM7B enzymatic assay (AlphaLISA); format: biochemical; conditions: enzyme concentration 2.5 nM
Description: as §3, §2

NSD1 = target: T2, NSD1 (Homo sapiens, UniProt Q96L73); experiment: Histone methyltransferase enzymatic assay, NSD1; format: biochemical; conditions: enzyme conc. 50 nM
T2 construct: 1538-2696; purchased RBC (read as Reaction Biology Corporation, named)
Description: (§4) Histone methyltransferase assays were performed in 96-well half-area optiplates (PerkinElmer) at room temperature. All concentrations are final unless noted otherwise. Compounds were serially diluted in DMSO and the final DMSO concentration was 1%. A 24 μL reaction mixture contained compound, enzyme, 200 nM of nucleosome or histone substrate, 400 nM ^3H-SAM (83.1 Ci/mmol), 50 mM Tris-HCl (pH 8.0), 50 mM NaCl, 5 mM MgCl2, 1 mM DTT, and 0.01% Tween-20. The plate was sealed, mixed on a Titramax plate shaker at 1200 rpm for 30 sec, and incubated at room temperature for 60 min. The reaction was quenched by addition of 24 μL mixture containing 5 mg/mL PVT-PEI beads and 300 μM unlabeled SAM in water. The plate was sealed, mixed as previously noted, incubated overnight, and read on a TopCount plate reader (PerkinElmer).
as §2

NSD3 = target: T3, NSD3 (Homo sapiens, UniProt Q9BZ95); experiment: Histone methyltransferase enzymatic assay, NSD3; format: biochemical; conditions: enzyme conc. 100 nM
T3 construct: 1021-1322; purchased RBC (read as Reaction Biology Corporation, named)
Description: as §4, §2

SET7/9 = target: T4, SET7/9 (Homo sapiens, UniProt Q8WTS6); experiment: Histone methyltransferase enzymatic assay, SET7/9; format: biochemical; conditions: enzyme conc. 100 nM
T4 construct: 2-366; purchased RBC (read as Reaction Biology Corporation, named)
Description: as §4, §2

GLP = target: T5, GLP (Homo sapiens, UniProt Q9H9B1); experiment: Histone methyltransferase enzymatic assay, GLP; format: biochemical
T5 construct: 894-1298; purchased RBC (read as Reaction Biology Corporation, named)
Description: as §4, §2

SETDB1 = target: T6, SETDB1 (Homo sapiens, UniProt Q15047); experiment: Histone methyltransferase enzymatic assay, SETDB1; format: biochemical; conditions: enzyme conc. 100 nM
T6 construct: 510-1290
Description: as §4, §2

HBV (genotype C, GTC) = system: HBV (genotype C, GTC); design: method as in PMID 31226346; conditions: humanized mouse model of HBV infection; cited from earlier work
KDM5A = target: T7, KDM5A (Homo sapiens, UniProt P29375); experiment: KDM5A enzymatic assay (CisBio HTRF); format: biochemical; conditions: enzyme concentration 2.5 nM; IC50 lower than enzyme concentration, likely underestimates potency
T7 construct: purchased Reaction Biology Corp (assay run there as a contract service)
Description: as §1, §2

KDM4B = target: T8, KDM4B (Homo sapiens, UniProt O94953); experiment: KDM4B enzymatic assay (AlphaLISA); format: biochemical; conditions: enzyme concentration 1 nM
T8 sequence (O94953 1-1096): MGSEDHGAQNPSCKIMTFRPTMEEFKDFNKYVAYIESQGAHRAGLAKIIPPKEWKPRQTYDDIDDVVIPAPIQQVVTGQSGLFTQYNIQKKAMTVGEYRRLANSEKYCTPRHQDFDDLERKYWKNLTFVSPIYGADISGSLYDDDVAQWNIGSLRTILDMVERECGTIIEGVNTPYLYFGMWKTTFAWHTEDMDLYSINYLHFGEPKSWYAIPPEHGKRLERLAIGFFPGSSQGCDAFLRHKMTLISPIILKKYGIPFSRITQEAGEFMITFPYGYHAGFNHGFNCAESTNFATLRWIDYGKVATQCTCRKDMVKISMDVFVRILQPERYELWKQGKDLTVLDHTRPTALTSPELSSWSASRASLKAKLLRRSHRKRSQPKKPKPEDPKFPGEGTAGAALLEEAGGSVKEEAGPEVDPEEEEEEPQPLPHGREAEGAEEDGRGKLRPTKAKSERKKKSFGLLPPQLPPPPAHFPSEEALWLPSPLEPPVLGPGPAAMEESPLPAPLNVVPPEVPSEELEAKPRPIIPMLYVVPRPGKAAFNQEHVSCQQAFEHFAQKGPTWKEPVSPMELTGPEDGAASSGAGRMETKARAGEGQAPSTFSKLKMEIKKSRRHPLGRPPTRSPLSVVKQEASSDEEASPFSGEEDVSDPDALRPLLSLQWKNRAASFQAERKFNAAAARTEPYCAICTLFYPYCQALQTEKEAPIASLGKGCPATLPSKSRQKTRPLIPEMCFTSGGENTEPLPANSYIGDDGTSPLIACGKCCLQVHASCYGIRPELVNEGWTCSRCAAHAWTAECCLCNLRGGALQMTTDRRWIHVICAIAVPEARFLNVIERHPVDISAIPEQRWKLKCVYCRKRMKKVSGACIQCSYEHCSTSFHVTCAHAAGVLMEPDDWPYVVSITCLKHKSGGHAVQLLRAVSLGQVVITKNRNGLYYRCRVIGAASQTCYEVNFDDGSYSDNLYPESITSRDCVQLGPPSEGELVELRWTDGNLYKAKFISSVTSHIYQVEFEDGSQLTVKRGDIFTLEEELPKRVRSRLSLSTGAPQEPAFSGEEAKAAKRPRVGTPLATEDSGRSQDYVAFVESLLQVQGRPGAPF
Description: as §3, §2

KDM2B = target: T9, KDM2B (Homo sapiens, UniProt Q8NHM5); experiment: KDM2B enzymatic assay (AlphaLISA); format: biochemical; conditions: enzyme concentration 2 nM
T9 sequence (Q8NHM5 1-1336): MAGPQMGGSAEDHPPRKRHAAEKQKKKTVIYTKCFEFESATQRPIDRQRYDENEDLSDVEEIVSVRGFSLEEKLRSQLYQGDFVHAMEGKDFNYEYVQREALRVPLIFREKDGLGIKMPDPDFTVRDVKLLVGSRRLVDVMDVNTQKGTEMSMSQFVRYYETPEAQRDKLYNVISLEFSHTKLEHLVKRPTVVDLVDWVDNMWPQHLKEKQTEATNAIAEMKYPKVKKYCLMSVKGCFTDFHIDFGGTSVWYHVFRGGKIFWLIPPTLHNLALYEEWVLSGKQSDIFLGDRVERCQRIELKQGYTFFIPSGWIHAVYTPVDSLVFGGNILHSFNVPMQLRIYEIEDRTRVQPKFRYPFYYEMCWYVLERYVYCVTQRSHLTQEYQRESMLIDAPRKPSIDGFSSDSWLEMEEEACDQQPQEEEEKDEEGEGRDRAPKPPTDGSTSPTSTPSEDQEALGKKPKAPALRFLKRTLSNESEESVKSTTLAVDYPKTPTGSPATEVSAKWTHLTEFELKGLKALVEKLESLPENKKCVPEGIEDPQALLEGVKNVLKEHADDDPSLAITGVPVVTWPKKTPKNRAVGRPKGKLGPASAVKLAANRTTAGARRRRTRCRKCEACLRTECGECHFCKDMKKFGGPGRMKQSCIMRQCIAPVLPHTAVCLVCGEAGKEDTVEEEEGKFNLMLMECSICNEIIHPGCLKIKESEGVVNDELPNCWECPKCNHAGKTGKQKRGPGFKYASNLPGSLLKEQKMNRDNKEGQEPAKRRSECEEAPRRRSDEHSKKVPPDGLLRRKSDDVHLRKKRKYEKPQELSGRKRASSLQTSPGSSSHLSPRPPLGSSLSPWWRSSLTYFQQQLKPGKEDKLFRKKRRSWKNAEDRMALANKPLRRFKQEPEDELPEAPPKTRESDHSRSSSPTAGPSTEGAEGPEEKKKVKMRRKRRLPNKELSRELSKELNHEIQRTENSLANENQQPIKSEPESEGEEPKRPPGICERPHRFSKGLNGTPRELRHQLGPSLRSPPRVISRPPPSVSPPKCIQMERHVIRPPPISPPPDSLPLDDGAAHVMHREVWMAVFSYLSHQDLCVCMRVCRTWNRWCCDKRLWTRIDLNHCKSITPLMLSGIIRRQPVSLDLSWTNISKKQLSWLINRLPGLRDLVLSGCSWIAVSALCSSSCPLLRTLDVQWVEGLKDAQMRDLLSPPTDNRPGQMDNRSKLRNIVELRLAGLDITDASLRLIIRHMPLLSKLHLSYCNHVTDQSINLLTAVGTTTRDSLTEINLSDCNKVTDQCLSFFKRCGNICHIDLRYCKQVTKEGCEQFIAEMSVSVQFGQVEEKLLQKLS
Description: as §3, §2

KDM6A = KDM6A (Homo sapiens, UniProt O15550); experiment: KDM6A enzymatic assay (AlphaLISA); format: biochemical; conditions: enzyme concentration 2 nM
Description: as §3, §2

Cytotoxicity CC50, MT-4 = format: cell-based; conditions: human, MT-4 cells (T-lymphoblastoid cell line)
Description: (§5) a Values represent the geometric mean and multiplicative standard deviation of 3 – 5 primary human hepatocyte (PHH) donors or 5 – 10 independent experiments.
(§6) b MT-4: human T-lymphoblastoid cell line; PBMC: peripheral blood mononuclear cell; Gal-HepG2: galactose adapted human hepatoblastoma cell line; Huh-7: human hepatoma cell line; Gal-PC3: galactose adapted human prostate carcinoma cell line; MRC-5: Medical Research Council 5 embryonal lung fibroblast; NRVM: neonatal rat ventricular cardiomyocytes

Cytotoxicity CC50, PBMC = format: cell-based; conditions: human, PBMC (peripheral blood mononuclear cells)
Description: as §5, §6

[1] = Cytotoxicity CC50, Gal-HepG2; format: cell-based; conditions: human, Gal-HepG2 cells (galactose adapted hepatoblastoma cell line)
Description: as §5, §6

Cytotoxicity CC50, Huh-7 = format: cell-based; conditions: human, Huh-7 cells (hepatoma cell line)
Description: as §5, §6

Cytotoxicity CC50, PHH = format: cell-based; conditions: human, primary human hepatocytes (PHH)
Description: as §5, §6

[2] = Cytotoxicity CC50, Gal-PC3; format: cell-based; conditions: human
Description: as §5, §6

Cytotoxicity CC50, MRC-5 = format: cell-based; conditions: human, MRC-5 cells (embryonal lung fibroblasts)
Description: as §5, §6

Cytotoxicity CC50, NRVM = format: cell-based; conditions: rat, NRVM (neonatal rat ventricular cardiomyocytes)
Description: as §5, §6

T1 sequence (Q9UGL1 whole entry): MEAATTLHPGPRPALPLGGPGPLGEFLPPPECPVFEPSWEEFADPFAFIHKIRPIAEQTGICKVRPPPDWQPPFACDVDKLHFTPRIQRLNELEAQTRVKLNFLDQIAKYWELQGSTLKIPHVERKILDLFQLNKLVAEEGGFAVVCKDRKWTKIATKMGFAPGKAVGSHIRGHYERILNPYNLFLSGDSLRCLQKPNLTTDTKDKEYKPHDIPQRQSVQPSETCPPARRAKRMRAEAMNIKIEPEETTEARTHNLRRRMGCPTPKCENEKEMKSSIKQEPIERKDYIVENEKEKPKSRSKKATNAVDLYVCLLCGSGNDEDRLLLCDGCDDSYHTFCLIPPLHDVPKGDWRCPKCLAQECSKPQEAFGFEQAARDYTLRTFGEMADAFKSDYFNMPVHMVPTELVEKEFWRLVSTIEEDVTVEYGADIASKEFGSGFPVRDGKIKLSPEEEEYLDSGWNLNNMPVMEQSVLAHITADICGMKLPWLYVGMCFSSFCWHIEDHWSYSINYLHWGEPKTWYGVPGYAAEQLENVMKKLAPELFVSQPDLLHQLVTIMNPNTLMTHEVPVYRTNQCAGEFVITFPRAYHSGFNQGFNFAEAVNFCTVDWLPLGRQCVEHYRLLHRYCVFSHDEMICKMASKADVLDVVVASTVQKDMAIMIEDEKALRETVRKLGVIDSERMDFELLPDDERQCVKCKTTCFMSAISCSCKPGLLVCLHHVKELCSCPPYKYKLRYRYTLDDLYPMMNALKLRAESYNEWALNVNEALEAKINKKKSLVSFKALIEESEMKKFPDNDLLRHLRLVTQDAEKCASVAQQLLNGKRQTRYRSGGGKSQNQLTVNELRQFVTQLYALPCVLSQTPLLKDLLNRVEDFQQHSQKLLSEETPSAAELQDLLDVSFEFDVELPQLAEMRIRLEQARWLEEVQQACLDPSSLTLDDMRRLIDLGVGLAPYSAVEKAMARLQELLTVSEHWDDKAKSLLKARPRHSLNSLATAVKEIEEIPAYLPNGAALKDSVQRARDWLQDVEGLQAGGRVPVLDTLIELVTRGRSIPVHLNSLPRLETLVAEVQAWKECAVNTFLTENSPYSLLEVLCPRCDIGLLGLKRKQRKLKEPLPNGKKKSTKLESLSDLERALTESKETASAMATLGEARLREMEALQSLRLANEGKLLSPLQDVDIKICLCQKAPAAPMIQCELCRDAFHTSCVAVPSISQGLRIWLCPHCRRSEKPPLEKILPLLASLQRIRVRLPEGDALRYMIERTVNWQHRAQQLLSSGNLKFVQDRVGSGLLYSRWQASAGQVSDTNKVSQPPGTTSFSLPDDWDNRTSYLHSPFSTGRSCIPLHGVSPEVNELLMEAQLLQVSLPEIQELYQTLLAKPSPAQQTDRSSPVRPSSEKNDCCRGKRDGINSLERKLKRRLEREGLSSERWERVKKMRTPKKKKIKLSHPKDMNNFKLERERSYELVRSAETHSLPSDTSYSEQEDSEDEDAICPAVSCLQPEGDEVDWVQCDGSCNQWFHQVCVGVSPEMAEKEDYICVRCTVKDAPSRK
T4 sequence (Q8WTS6 2-366): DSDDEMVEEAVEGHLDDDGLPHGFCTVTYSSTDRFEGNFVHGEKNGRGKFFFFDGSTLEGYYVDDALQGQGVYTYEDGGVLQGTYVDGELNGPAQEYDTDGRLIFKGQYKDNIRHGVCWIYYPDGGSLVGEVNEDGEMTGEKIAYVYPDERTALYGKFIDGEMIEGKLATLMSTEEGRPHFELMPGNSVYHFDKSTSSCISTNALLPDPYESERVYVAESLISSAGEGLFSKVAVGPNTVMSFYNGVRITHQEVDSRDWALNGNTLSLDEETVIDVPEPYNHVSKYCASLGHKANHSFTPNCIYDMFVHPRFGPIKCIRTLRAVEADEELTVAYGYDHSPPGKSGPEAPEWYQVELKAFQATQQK
T5 sequence (Q9H9B1 894-1298): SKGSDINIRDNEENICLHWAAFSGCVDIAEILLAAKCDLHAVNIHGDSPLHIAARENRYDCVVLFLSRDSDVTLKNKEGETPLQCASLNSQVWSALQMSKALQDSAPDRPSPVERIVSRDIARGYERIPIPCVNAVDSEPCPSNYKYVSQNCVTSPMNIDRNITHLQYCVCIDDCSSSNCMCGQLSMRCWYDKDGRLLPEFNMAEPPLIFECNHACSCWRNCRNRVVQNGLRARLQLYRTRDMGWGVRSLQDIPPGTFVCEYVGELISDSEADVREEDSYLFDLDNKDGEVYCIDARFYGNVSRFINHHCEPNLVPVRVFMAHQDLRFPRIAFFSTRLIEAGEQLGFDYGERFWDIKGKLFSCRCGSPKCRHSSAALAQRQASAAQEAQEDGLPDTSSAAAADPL
T2 sequence (Q96L73 1538-2696): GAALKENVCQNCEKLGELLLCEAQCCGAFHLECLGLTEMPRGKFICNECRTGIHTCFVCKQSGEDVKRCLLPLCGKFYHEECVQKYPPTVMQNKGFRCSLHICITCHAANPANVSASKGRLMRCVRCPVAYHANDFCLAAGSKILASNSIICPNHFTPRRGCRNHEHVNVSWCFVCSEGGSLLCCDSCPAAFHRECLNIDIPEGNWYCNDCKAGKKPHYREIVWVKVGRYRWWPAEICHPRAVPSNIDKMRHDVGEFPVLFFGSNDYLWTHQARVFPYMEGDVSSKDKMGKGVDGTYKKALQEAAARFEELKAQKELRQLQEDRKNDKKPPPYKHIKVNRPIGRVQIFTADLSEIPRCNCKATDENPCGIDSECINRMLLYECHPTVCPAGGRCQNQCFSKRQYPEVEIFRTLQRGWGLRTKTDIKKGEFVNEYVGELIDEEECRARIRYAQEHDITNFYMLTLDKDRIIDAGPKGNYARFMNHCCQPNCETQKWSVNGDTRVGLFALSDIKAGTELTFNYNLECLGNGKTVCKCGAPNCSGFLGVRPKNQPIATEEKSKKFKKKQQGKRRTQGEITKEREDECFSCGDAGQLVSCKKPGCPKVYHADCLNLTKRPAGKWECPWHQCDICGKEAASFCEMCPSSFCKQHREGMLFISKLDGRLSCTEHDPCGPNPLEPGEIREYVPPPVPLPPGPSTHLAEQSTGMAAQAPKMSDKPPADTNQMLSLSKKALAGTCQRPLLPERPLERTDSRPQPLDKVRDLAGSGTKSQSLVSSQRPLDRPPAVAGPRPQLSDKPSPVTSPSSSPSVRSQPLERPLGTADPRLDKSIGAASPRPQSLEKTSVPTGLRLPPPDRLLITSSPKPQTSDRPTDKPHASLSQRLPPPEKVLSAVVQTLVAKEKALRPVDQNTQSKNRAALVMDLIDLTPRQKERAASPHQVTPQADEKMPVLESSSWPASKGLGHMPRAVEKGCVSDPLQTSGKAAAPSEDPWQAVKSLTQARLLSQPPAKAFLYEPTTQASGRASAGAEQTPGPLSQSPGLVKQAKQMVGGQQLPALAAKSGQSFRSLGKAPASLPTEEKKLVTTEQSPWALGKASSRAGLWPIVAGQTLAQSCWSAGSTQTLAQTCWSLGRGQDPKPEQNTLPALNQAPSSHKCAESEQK
T3 sequence (Q9BZ95 1021-1322): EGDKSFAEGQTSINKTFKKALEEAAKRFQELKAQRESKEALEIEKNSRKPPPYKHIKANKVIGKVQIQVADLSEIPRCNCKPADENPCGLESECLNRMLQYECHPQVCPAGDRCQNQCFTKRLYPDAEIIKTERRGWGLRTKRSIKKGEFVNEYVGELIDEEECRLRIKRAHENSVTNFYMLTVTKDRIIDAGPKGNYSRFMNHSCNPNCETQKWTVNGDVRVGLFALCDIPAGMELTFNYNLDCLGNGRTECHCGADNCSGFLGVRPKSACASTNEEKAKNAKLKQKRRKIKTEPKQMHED
Chain of KDM7B (Q9UPP1 whole entry): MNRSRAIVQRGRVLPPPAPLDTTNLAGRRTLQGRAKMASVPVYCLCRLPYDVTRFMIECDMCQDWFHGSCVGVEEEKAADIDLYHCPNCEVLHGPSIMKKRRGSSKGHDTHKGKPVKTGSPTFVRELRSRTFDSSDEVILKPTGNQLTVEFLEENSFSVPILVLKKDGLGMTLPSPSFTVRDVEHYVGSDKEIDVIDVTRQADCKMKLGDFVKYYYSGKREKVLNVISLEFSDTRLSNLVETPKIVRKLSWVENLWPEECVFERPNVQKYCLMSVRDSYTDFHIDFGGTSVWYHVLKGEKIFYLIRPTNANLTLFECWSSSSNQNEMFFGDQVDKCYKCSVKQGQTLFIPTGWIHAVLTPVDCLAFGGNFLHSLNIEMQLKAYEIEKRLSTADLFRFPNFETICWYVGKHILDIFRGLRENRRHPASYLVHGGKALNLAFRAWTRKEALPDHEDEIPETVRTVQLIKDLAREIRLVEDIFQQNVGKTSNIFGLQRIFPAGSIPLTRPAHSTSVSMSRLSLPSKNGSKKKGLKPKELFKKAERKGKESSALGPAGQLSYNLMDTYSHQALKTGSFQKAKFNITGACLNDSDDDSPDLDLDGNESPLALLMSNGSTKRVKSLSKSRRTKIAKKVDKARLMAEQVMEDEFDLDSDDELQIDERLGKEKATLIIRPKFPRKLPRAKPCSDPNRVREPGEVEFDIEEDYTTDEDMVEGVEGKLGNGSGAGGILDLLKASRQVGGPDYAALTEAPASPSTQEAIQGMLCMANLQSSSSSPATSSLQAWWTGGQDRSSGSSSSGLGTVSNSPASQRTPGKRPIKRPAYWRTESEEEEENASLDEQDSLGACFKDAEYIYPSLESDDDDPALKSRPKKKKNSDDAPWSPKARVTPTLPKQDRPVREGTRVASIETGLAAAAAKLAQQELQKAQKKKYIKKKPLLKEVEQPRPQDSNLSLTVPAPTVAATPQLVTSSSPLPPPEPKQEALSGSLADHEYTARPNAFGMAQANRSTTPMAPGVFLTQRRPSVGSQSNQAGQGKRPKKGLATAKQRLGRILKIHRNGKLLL

fold reduced KDM5B inhibitory activity over GS-080 (KDM5B; IC50 for KDM5B compared with GS-080): 7000 fold
IC50 (KDM5B; enzyme concentration 1.2 nM, IC50 lower than enzyme concentration, likely underestimates potency): 2760 nM
SMILES: CCN(CCN(C)C)C(=O)CNCc1cc(C(=O)O)c(Br)cn1 [GS-444]

IC50 (NSD1): 93000 nM
IC50 (NSD3): 15000 nM
IC50 (SET7/9): 70000 nM
IC50 (GLP): 2200 nM
IC50 (SETDB1): 17000 nM
SMILES: Nc1ncnc2c1ncn2[C@@H]1O[C@H](CSCC[C@H](N)C(=O)O)[C@@H](O)[C@H]1O [SAH, S-(5′-Adenosyl)-L-homocysteine, reference compound]

IC50 (KDM5A): 410 nM
IC50 (KDM4B): 860 nM
IC50 (KDM2B): 19000 nM
IC50 (KDM6A): 99000 nM
SMILES: O=C(O)c1ccnc(C(=O)O)c1 [PDCA, 2,4-Pyridinedicarboxylic acid, reference compound]

Second part, the molecule before the results:

SMILES: Oc1cccc2cccnc12 [8-OH Quinoline, 8-hydroxyquinoline, reference compound]
IC50 (KDM6B): 6400 nM
IC50 (KDM7B): 13000 nM

SMILES: CC1=C(/C=C/C(C)=C/C=C/C(C)=C\C(=O)O)C(C)(C)CCC1 [Accutane]
in vivo antiviral activity (HBV (genotype C, GTC)): lack of in vivo antiviral activity

SMILES: COc1ccc(C[C@H](N)C(=O)N[C@H]2[C@@H](O)[C@H](n3cnc4c(N(C)C)ncnc43)O[C@@H]2CO)cc1 [Puromycin, reference compound]
CC50 (Cytotoxicity CC50, MT-4): 100 nM
CC50 (Cytotoxicity CC50, PBMC): 610 ± 1300 nM
CC50 [1]: 1300 ± 1400 nM
CC50 (Cytotoxicity CC50, Huh-7): 670 ± 1500 nM
CC50 (Cytotoxicity CC50, PHH): 1600 ± 1800 nM
CC50 [2]: 440 nM
CC50 (Cytotoxicity CC50, MRC-5): 350 nM
CC50 (Cytotoxicity CC50, NRVM): 570 ± 1400 nM
